The test system of test [1] is mouse (MC3T3-E1) and human (TE-85) osteoblast-line cells. It is filed as cell-based. In a few lines:
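MC3T3-E1 or TE-85 cells were plated overnight in DMEM/25 mM HEPES/10% FBS and then preincubated 24 h in 0.1% FBS. Compounds were added for 20 h, followed by a 4 h pulse of 0.4 μCi ^3H-thymidine. Incorporated radioactivity served as the proliferation index, expressed as % of control (control = 100%).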

In test [2] the target is T1, progestin receptor from rabbit uterus (Oryctolagus cuniculus, UniProt P06186).
T1 construct: Cytosolic progestin receptor were obtained by mixing rabbit uterine tissue with a Tris buffer; from tissue; host or cells: rabbit uterus cytosol
T1 sequence (P06186 whole entry): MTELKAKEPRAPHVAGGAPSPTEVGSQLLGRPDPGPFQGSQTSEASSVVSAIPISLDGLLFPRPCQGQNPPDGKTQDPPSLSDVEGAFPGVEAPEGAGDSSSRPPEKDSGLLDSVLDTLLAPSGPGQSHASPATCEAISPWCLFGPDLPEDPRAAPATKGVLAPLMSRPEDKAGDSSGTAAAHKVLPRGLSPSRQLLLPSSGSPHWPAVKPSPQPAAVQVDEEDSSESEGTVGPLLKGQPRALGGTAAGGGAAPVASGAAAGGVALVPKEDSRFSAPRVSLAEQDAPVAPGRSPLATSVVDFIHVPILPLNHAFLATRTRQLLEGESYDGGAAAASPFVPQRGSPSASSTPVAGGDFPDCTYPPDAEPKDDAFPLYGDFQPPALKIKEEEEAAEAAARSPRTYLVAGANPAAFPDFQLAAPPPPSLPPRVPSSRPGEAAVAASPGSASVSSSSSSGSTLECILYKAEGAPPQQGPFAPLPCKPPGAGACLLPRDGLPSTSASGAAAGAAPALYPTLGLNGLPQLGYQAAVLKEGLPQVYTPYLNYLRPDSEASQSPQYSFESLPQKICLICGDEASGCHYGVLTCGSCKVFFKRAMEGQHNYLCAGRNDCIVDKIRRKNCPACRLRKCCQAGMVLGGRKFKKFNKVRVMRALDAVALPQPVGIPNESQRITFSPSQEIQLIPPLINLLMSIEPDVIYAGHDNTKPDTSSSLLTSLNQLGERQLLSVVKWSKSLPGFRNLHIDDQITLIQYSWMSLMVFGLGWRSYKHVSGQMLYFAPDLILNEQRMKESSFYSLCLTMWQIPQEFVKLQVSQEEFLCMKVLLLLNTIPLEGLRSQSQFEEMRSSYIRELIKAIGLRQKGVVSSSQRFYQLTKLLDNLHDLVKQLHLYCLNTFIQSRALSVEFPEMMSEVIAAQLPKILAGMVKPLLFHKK
The test is described as follows: Progestin receptor binding (3H-R5020 displacement). The conditions noted are these: rabbit uterine cytosol, 4° C., 18 h, read-out: IC50: Binding affinity for the progestin receptor from rabbit uterus. In a few lines:
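Rabbit uterine cytosol in Tris buffer pH 7.4 with EDTA, DTT and molybdate was incubated with 3H-R5020 and test compound (5% DMSO final) at 4 °C for about 18 h. Bound ligand was separated with dextran-coated charcoal and counted by scintillation; IC50 is 50% radioligand displacement, with nonspecific binding defined by excess unlabelled ligand.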

pIC50: −log10 of the molar value. Read-outs that look alike come from different tables or passages of the source.

The results in this text go back to patent US5684151A, “1-arylsulphonyl, arylcarbonyl and 1-arylphosphonyl-3-phenyl-1,4,5,6-tetrahydropyridazines” (priority 1995, dated 1997).

As usually defined, the pIC50 is the negative decadic logarithm of the IC50, by convention in mol/L. For `O=C(c1ccccc1)N1CCCC(c2ccccc2)=N1` [Compound 196], the “Osteoblast Cell Proliferation, 3H-thymidine incorporation vs control (100%)” value (from here on “Osteoblast Cell Proliferation … (100%)”) turned out to be 102% in test [1] (10^-6); 97% in test [1] (10^-7); 102% in test [1] (10^-8); 92% in test [1] (10^-9); 104% in test [1] (10^-10). In addition, the pIC50 in test [2] is 4.00.
On to `O=S(=O)(c1c(F)c(F)c(F)c(F)c1F)N1CCCC(c2ccc(F)cc2)=N1` [Compound 152, 3-(4-Fluorophenyl)-1-(pentafluorobenzenesulfonyl)-1,4,5,6-tetrahydropyridazine], for which the “Osteoblast Cell Proliferation … (100%)” value in test [1] (10^-6) was 87%; in test [1] (10^-7), 123%; in test [1] (10^-8), 124%; in test [1] (10^-9), 149%; in test [1] (10^-10), 161%. In addition, the pIC50 in test [2] was 6.76.
`COC12CCCCC1CC(c1ccccc1)=NN2S(=O)(=O)c1ccc(C)cc1` (stereo not drawn) [Compound 159, 1,4,4a,5,6,7,8,8a-Octahydro-8a-methoxy-1-(4-methyl-benzenesulfonyl)-3-phenyl-1,2-diazanapthalene]: the “Osteoblast Cell Proliferation … (100%)” value was determined as 97% in test [1] (10^-6); 100% in test [1] (10^-7); 91% in test [1] (10^-8); 97% in test [1] (10^-9); 105% in test [1] (10^-10). Besides, the pIC50 in test [2] was 5.86.
For `O=S(=O)(c1ccc2ccccc2c1)N1CCCC(c2ccccc2)=N1` [Compound 51], the “Osteoblast Cell Proliferation … (100%)” value was found to be 119% in test [1] (10^-6); 120% in test [1] (10^-7); 144% in test [1] (10^-8); 126% in test [1] (10^-9); 158% in test [1] (10^-10). Besides, the pIC50 in test [2] was 6.69.
On to `CCCCc1ccc(C2=NN(S(=O)(=O)c3ccc4ccccc4c3)CCC2)cc1` [Compound 72], for which the “Osteoblast Cell Proliferation … (100%)” value in test [1] (10^-6) amounted to 113%; in test [1] (10^-7), 119%; in test [1] (10^-8) it was 129%; in test [1] (10^-9) it was 120%; in test [1] (10^-10), 123%. For the same compound, in test [2], the pIC50 is 5.00.
Turning to `Cc1ccc(S(=O)(=O)N2N=C(c3ccccc3)CC3C4C5C=CC(C5)C4CC32)cc1` (stereo not drawn) [Compound 157, 1,4,4a,9a-Tetrahydro-1-(4-methylbenzenesulfonyl)-3-phenyl-bicyclo[2.2.1]hept-7-enyl[5.6-a]cyclopenta-[1.2-e]pyridazine], the “Osteoblast Cell Proliferation … (100%)” value in test [1] (10^-6) worked out at 107%; in test [1] (10^-7), 108%; in test [1] (10^-8) it was 113%; in test [1] (10^-9), 111%; in test [1] (10^-10), 128%. Further, the pIC50 in test [2] was 6.12.
Regarding `O=S(=O)(c1ccc(I)cc1)N1CCCC(c2ccc3c(c2)CCCC3)=N1` [Compound 113], the “Osteoblast Cell Proliferation … (100%)” value stood at 66% in test [1] (10^-6); 94% in test [1] (10^-7); 102% in test [1] (10^-8); 102% in test [1] (10^-9); 90% in test [1] (10^-10). Further, in test [2], the pIC50 is 7.56.
